The test system of this test is HCT116^MTAP Deletion cells. Nature of the test: Anti-proliferation assay on cells (CTG, 10 days), HCT116 MTAP Deletion. Type of test: cell-based. The note with it: anti-proliferative activity, HCT116 MTAP Deletion, 10 days, class symbols, read-out: HCT116^MTAP Deletion GI50. On the procedure: HCT116^MTAD Deletion cells were from Pharmaron (China); HCT116 cells were from ATCC; McCoy's 5A medium was purchased from Invitrogen (USA); penicillin-streptomycin and fetal bovine serum were purchased from Gibco (USA); a 384-well plate was purchased from PerkinElmer (USA); and Cell-Titer Glo reagent was purchased from Promega (USA).
Compound dissolution: All the compounds were dissolved in dimethyl sulfoxide (DMSO) and then stored. The compounds were stored at room temperature in a dry condition for 3 months for short term storage or at −20 °C for long term storage.
The cells were cultured strictly in accordance with ATCC requirements. The cell culture medium (McCoy's 5A medium+10% fetal bovine serum+1% penicillin+streptomycin) was transferred to a 15 mL centrifuge tube and centrifuged at 1000 rpm for 5 min. The supernatant was removed. The cells were resuspended with complete culture medium, inoculated into a culture dish at the required density, and cultured in an incubator at 37 °C, 95% humid air, and 5% carbon dioxide. The culture medium was replenished or the cells were passaged every 2-3 days depending on the cell growth condition.
When the confluency of cells in the culture dish reached about 90%, the cells were washed twice with PBS, and then treated with trypsin to become single cells. The cells were counted, and 40 μl of the cells was inoculated into each well of a 384-well plate (50 cells/well). The plate was equilibrated at 37 °C and 5% carbon dioxide for 10 to 15 minutes. The compounds were injected into the 384-well plate using Echo550, and positive control and negative control (0.1% DMSO) were set up. Each compound was subjected to a 3-fold dilution, resulting in 10 concentration gradients, in duplicate, and the content of DMSO was 0.1%. The 384-well plate was incubated in a cell culture incubator for 10 days.
Then, 40 μl of cell proliferation assay reagent (CTG) was added to the 384-well plate, and the plate was shaken to mix well. Then, the 384-well plate was incubated at 37 °C and 5% carbon dioxide in the dark for 30 minutes. The data were read using the Envision multifunctional microplate reader. […] According to the different drug concentrations and their corresponding inhibition rates, the GI50 curve was drawn using GraphPad 8.0 software. The data were analyzed, and the final GI50 value was obtained.

Read-outs that look alike come from different tables or passages of the source.

As a reminder, the GI50 is the concentration that inhibits growth by half.

In the case of `CCC(C)N(Cc1ccc(C(F)(F)F)cn1)C(=O)C(=O)Nc1cnc(N)c(C)c1` (stereo not drawn) [Example 8], the GI50 (Homo sapiens, HCT-116, 240 h) fell in the range of 10 to 100 nM.
In the case of `Cc1cc(NC(=O)C(=O)N(Cc2ccc(C(F)(F)F)cn2)c2cnn(C)c2)cnc1N` [Example 18], under “Homo sapiens, HCT-116, 240 h”, the GI50 lay in the range of 100 to 1000 nM.
Regarding `CN(C(=O)C(=O)Nc1cnc(N)c2c1cnn2C)C1COCc2cc(-c3cnn(C(F)(F)F)c3)ccc21` (racemic) [Compound 231], the GI50 (Homo sapiens, HCT-116, 240 h) was at most 10 nM.
On the same count and under the same terms, then `CN(C(=O)C(=O)Nc1cnc(N)c2c1cnn2C)C1COCc2c(F)cc(Cl)cc21` (racemic) [Compound 155], with 10 to 100 nM; and `CCC(C)N(Cc1ccc(C(F)(F)F)cn1)C(=O)C(=O)Nc1cnc(N)c2c1cnn2C` (stereo not drawn) [Example 46-P2], with 10 to 100 nM.
Still for that read-out and setting: the figure for `CN(C(=O)C(=O)Nc1cnc(N)c2c1cnn2C)C1COCc2cc(-c3cnn(C4CC4)c3)ccc21` (racemic) [Compound 223] is at most 10 nM.
Same read-out and setting: then `CN(C(=O)C(=O)Nc1cnc(N)c2c1cnn2C)C1COc2cc(-c3ccnn3C3CC3)ccc21` (stereo not drawn) [Example 212], with at most 10 nM; and `CN(C(=O)C(=O)Nc1cnc(N)c2c1cnn2C)C1COc2cc(Cl)c(Cl)cc21` (racemic) [Compound 186], with at most 10 nM; and `C[C@H](C1CC1)N(Cc1ccc(C(F)(F)F)cn1)C(=O)C(=O)Nc1cnc(N)c2c1COC2` [Example 39], with 100 to 1000 nM.
As to `CC(c1cscn1)N(Cc1ccc(C(F)(F)F)cn1)C(=O)C(=O)Nc1cnc(N)c2c1cnn2C` (stereo not drawn) [Example 44], where the note is “Homo sapiens, HCT-116, 240 h”, the concentration for 50% growth inhibition (GI50) lay in the range of 10 to 100 nM.
The same measure, in the same setting: the figure for `CN(C(=O)C(=O)Nc1cnc(N)c2c1cnn2C)C1COc2nc(C(F)(F)F)ccc21` (stereo not drawn) [Example 159] is 100 to 1000 nM; for `Cc1cc(NC(=O)C(=O)N(Cc2ccc(C#N)cn2)[C@H](C)c2ncccn2)cnc1N` [Example 28] it is 1000 to 10000 nM; for `CN(C(=O)C(=O)Nc1cnc(N)c2c1cnn2C)C1COc2cc(Br)ccc21` (racemic) [Compound 180] it is at most 10 nM.
As to `CN(C(=O)C(=O)Nc1cnc(N)c2c1cnn2C)C1COc2cc(C(F)(F)F)ccc21` (single isomer, unassigned) [Example 112-P2], the 50% growth inhibitory concentration (GI50) is 10 to 100 nM.
Turning to `C[C@H](c1ncccn1)N(Cc1ccc(C(F)(F)F)cn1)C(=O)C(=O)Nc1cnc(N)c(Cl)c1` [Example 23], the GI50 (Homo sapiens, HCT-116, 240 h) was in the range of 1000 to 10000 nM.
Same read-out and setting: then `CN(C(=O)C(=O)Nc1cnc(N)c2c1cnn2C)C1COCc2cc(-c3ccnn3C)ccc21` (racemic) [Compound 156], with at most 10 nM.
With `Cc1cc(C2CC2C(=O)N(Cc2ccc(C(F)(F)F)cn2)[C@H](C)c2ncccn2)cnc1N` (stereo partly drawn) [Example 7], where the note is “Homo sapiens, HCT-116, 240 h”, the GI50 was over 10000 nM.
In the case of `Nc1ncc(NC(=O)C(=O)N(Cc2ccc(C(F)(F)F)cn2)CC2CC2)c2c1COC2` [Example 40], the GI50 (Homo sapiens, HCT-116, 240 h) lay in the range of 100 to 1000 nM.
In the case of `C[C@H](c1ncccn1)N(Cc1ccc(C(F)(F)F)cn1)C(=O)C(=O)Nc1cnc(N)c2ccncc12` [Example 32], the concentration for 50% growth inhibition (GI50) (Homo sapiens, HCT-116, 240 h) fell in the range of 100 to 1000 nM.
The same measure, in the same setting: then `CN(C(=O)C(=O)Nc1cnc(N)c2c1cnn2C)C1COCc2cc(-c3ccnn3C3CC3)ccc21` (racemic) [Compound 241], with at most 10 nM; and `CN(C(=O)C(=O)Nc1cnc(N)c2c1cnn2C)C1COc2cc(-c3ccnn3C)ccc21` (racemic) [Compound 192], with at most 10 nM.
As to `CCC(C)N(Cc1ccc(C(F)(F)F)cn1)C(=O)C(=O)Nc1cnc(N)c(C)c1` (single isomer, unassigned) [Example 45-P1], the GI50 (Homo sapiens, HCT-116, 240 h) fell in the range of 10 to 100 nM.
Take `CN(C(=O)C(=O)Nc1cnc(N)c2c1cnn2C)C1COc2cc(-c3cnn(C(F)(F)F)c3)ccc21` (stereo not drawn) [Example 213]: the GI50 (Homo sapiens, HCT-116, 240 h) is at most 10 nM.
Still for that read-out and setting: the figure for `Cc1cc(NC(=O)C(=O)N(Cc2ccc(C3=CCOCC3)nn2)[C@H](C)c2ncccn2)cnc1N` [Example 42] is 100 to 1000 nM; for `C[C@H](c1ncccn1)N(Cc1ccc(C(F)(F)F)cn1)C(=O)C(=O)Nc1cnc(N)c(F)c1` [Example 22] it is 1000 to 10000 nM; for `CCc1cc(NC(=O)C(=O)N(Cc2ccc(C(F)(F)F)cn2)[C@H](C)c2ncccn2)cnc1N` [Example 21] it is 100 to 1000 nM.
Still for that read-out and setting: the figure for `Cc1cc(NC(=O)C(=O)N(Cc2ccc(C(F)(F)F)cn2)CC2CCC2)cnc1N` [Example 16] is 10 to 100 nM.
Take `CN(C(=O)C(=O)Nc1cnc(N)c2c1cnn2C)C1COCc2cc(-c3cnn(C)c3)ccc21` (stereo not drawn) [Example 124-P1]: the GI50 was at most 10 nM.
On to `Cc1cc(NC(=O)C(=O)N(Cc2ccc(N3CCC(F)(F)C3)cn2)[C@H](C)c2ncccn2)cnc1N` [Example 29], for which, for the setting “Homo sapiens, HCT-116, 240 h”, the GI50 lay within 100 to 1000 nM.
Regarding `CCC(C)N(Cc1ccc(C(F)(F)F)cn1)C(=O)C(=O)Nc1cnc(N)c2c1cnn2C` (stereo not drawn) [Example 52], the GI50 is at most 10 nM.
With `CN(C(=O)C(=O)Nc1cnc(N)c2c1cnn2C)C1COc2cc(-c3cnn(C4CC4)c3)ccc21` (stereo not drawn) [Example 211], the GI50 (Homo sapiens, HCT-116, 240 h) was at most 10 nM.
For `CN(C(=O)C(=O)Nc1cnc(N)c2c1cnn2C)C1COCc2cc(C3=CCOCC3)ccc21` (stereo not drawn) [Example 100], the GI50 (Homo sapiens, HCT-116, 240 h) is at most 10 nM.
For `CCC(C)N(Cc1ccc(C(F)(F)F)cn1)C(=O)C(=O)Nc1cnc(N)c2c1COC2C` (stereo not drawn) [Example 10], under “Homo sapiens, HCT-116, 240 h”, the GI50 was in the range of 10 to 100 nM.
The same measure, in the same setting: then `Cc1ncc(-c2ccc3c(n2)COCC3N(C)C(=O)C(=O)Nc2cnc(N)c3c2cnn3C)s1` (racemic) [Compound 209], with at most 10 nM.
Turning to `C[C@H](c1ncccn1)N(Cc1ccc(C(F)(F)F)cn1)C(=O)C(=O)Nc1cnc(N)c2c1COC2` [Example 2], the 50% growth inhibitory concentration (GI50) (Homo sapiens, HCT-116, 240 h) fell in the range of 10 to 100 nM.
Same read-out and setting: the figure for `Cc1cc(NC(=O)C(=O)N(Cc2ccc(C(F)(F)F)cn2)C2CCCOC2)cnc1N` (single isomer, unassigned) [Example 14-P1] is 100 to 1000 nM; for `Cc1cc(NC(=O)C(=O)N(C)Cc2ccc(C(F)(F)F)cn2)cnc1N` [Example 3] it is 1000 to 10000 nM.
As for `C[C@H](c1ncccn1)N(Cc1ccc(C(F)(F)F)cn1)C(=O)C(=O)Nc1cnc(N)c(Br)c1` [Example 24], the GI50 (Homo sapiens, HCT-116, 240 h) lay within 100 to 1000 nM.
The same measure, in the same setting: the figure for `CC1OCC(N(C)C(=O)C(=O)Nc2cnc(N)c3c2cnn3C)c2ccc(C(F)(F)F)cc21` (stereo not drawn) [Compound 187] is at most 10 nM; for `CCC(C)N(Cc1ccc(C(F)(F)F)cn1)C(=O)C(=O)Nc1cnc(N)c2c1cnn2C` (racemic) [Example 46-P1] it is 10 to 100 nM.
Still for that read-out and setting: the figure for `CCC(C)N(Cc1cnn(C)c1)C(=O)C(=O)Nc1cnc(N)c(C)c1` (stereo not drawn) [Example 73] is over 10000 nM; for `CN(C(=O)C(=O)Nc1cnc(N)c2c1cnn2C)C1COCc2cc(-c3cnn(C)c3)ccc21` (stereo not drawn) [Example 99] it is at most 10 nM; for `CN(C(=O)C(=O)Nc1cnc(N)c2c1cnn2C)C1COc2cc(F)c(F)cc21` (racemic) [Compound 172] it is 10 to 100 nM.
With `Cc1cc(NC(=O)C(=O)N(Cc2ccc(C(F)(F)F)cn2)[C@H](C)C2CC2)cnc1N` [Example 36], for the setting “Homo sapiens, HCT-116, 240 h”, the GI50 is 10 to 100 nM.
Still for that read-out and setting: the figure for `Cc1ccc2c(c1)OCC2N(C)C(=O)C(=O)Nc1cnc(N)c2c1cnn2C` (stereo not drawn) [Example 233] is 10 to 100 nM.
For the molecule `Cc1nc(NC(=O)C(=O)N(Cc2ccc(C(F)(F)F)cn2)[C@H](C)c2ncccn2)cnc1N` [Example 27], under “Homo sapiens, HCT-116, 240 h”, the GI50 lay in the range of 100 to 1000 nM.
Same read-out and setting: the figure for `CN(C(=O)C(=O)Nc1cnc(N)c2c1cnn2C)C1COCc2cc(C3=CCC(F)(F)CC3)ccc21` (stereo not drawn) [Example 157] is at most 10 nM.
In the case of `[2H]C([2H])([2H])n1ncc2c(NC(=O)C(=O)N(C)C3COc4cc(C(F)(F)F)ccc43)cnc(N)c21` (stereo not drawn) [Example 173], the GI50 (Homo sapiens, HCT-116, 240 h) lay in the range of 10 to 100 nM.

The values are drawn from patent US20260345603A1, “PRMT5 INHIBITORS” (Beijing Earthwise Technology Co., Ltd., priority 2022, published 2026).
